This is an account of results in PMC6736568, “Discovery of Novel Anti-cryptosporidial Activities From Natural Products by in vitro High-Throughput Phenotypic Screening” (Frontiers in Microbiology, 2019).

In data set [1] the test system is HCT-8 host cells (Hs18S).
Data set [2] in a line: in vitro. The conditions noted are these: for cytotoxicity at 41 h, 10 µM: human.
The test system of data set [3] is Cryptosporidium parvum. The data set is described as follows: qRT-PCR assay of the growth of C. parvum in vitro in HCT-8 host cells (primary and secondary screening, EC50). The conditions noted are these: Cryptosporidium parvum, HCT-8; for inhibition at 10 µM: primary screening at 10 uM, read-out: Inhibition (%). It counts as cell-based.
The mark [4] stands for this setting: primary screening at 10 uM, treated vs control.

Where a name gives a salt, the structure may show the parent alone. Read-outs that look alike come from different tables or passages of the source.

As a reminder, the inhibition is the drop in the measured response relative to a control, in per cent. With `COC(=O)c1cc(OC)c(=O)c2c(OC)c(OC)ccc2c1` [METHYL 7-DESOXYPURPUROGALLIN-7-CARBOXYLATE TRIMETHYL ETHER], the “Hs18S ΔCT” value in data set [1] (human, 41 h, 10 μM) worked out at 0.00. Also, in data set [2], the cytotoxicity at 41 h, 10 µM came to 0.1%. Also, the inhibition at 10 µM in data set [3] was -15.9%.
For `COC(=O)CC[C@@H](C)[C@H]1CC[C@H]2[C@@H]3CC[C@@H]4C[C@H](O)CC[C@]4(C)[C@H]3C[C@H](O)[C@]12C` [METHYL DEOXYCHOLATE], in data set [1] (human, 41 h, 10 μM), the “Hs18S ΔCT” value came to 0.66. For the same compound, the cytotoxicity at 41 h, 10 µM in data set [2] was found to be 36.7%. In data set [3], the inhibition at 10 µM amounted to 23.4%.
Taken in the same sequence, the figures for `COC(=O)c1c(C)cc(O)cc1O` [METHYL ORSELLINATE] were 0.31, 19.6% and -34.8%.
For `COc1c2c(cc3occ(-c4ccc5c(c4)OCO5)c(=O)c13)OC(C)(C)C=C2` [METHYL ROBUSTONE], in data set [1] (human, 41 h, 10 μM), the “Hs18S ΔCT” value is -0.08. The cytotoxicity at 41 h, 10 µM in data set [2] was -5.4%. Further, in data set [3], the inhibition at 10 µM is -44.6%.
As to `CC[C@H](C)C(=O)O[C@H]1CCC=C2C=C[C@H](C)[C@H](CC[C@@H]3C[C@@H](O)CC(=O)O3)[C@H]21` [MEVASTATIN], the “Hs18S ΔCT” value in data set [1] (human, 41 h, 10 μM) amounted to 0.22. The cytotoxicity at 41 h, 10 µM in data set [2] was found to be 14.4%. Further, the inhibition at 10 µM in data set [3] worked out at 24%.
Taken in the same sequence, the figures for `COC(=O)C[C@H]1C(C)(C)C(=O)[C@@H]2CC3=C4CC(=O)O[C@@H](c5ccoc5)[C@]4(C)CC[C@@H]3[C@@]1(C)C2=O` [MEXICANOLIDE] were -0.17, -12.3% and 31.5%.
For `NC(Cn1ccc(=O)c(O)c1)C(=O)O` (stereo not shown) [MIMOSINE], in that order: -0.01, -0.4% and -22%.
With `C[C@H]1C(=O)O[C@@H]2CCN3CC=C(COC(=O)[C@](C)(O)[C@]1(C)O)[C@H]23` [MONOCROTALINE], in data set [1] (setting [4]), the “Hs18S ΔCT” value was 0.14. In data set [2], the cytotoxicity at 10 µM was 9.5%. Besides, in data set [3], the inhibition at 10 µM worked out at 12%.
`O=c1c(O)c(-c2ccc(O)cc2O)oc2cc(O)cc(O)c12` [MORIN]: in data set [1] (setting [4]), the “Hs18S ΔCT” value was -0.21. Moreover, in data set [2], the cytotoxicity at 10 µM was -15.6%. Further, the inhibition at 10 µM in data set [3] came out at 32.3%.
As to `O=C(O)[C@@H](O)[C@H](O)[C@H](O)[C@@H](O)C(=O)O` [MUCIC ACID], the “Hs18S ΔCT” value in data set [1] (human, 41 h, 10 μM) is -0.19. The cytotoxicity at 41 h, 10 µM in data set [2] was -13.8%. In addition, the inhibition at 10 µM in data set [3] is -14.3%.
As for `COc1ccc2c(c1)O[C@@H]1COc3cc(OC)c(OC)cc3[C@@H]1C2=O` [MUNDOSERONE], the “Hs18S ΔCT” value in data set [1] (setting [4]) was found to be 0.17. The cytotoxicity at 10 µM in data set [2] came to 11.4%. Moreover, the inhibition at 10 µM in data set [3] was found to be 13.7%.
Take `COc1c(-c2coc3cc4c(cc3c2=O)CC(OC(C)=O)C(C)(C)O4)ccc2c1C=CC(C)(C)O2` (stereo not shown) [MUNDULONE ACETATE]: in data set [1] (human, 41 h, 10 μM), the “Hs18S ΔCT” value was determined as 0.37. Further, the cytotoxicity at 41 h, 10 µM in data set [2] was 22.6%. Further, in data set [3], the inhibition at 10 µM is -3.19%.
As for `COc1c(-c2coc3cc4c(cc3c2=O)CC(O)C(C)(C)O4)ccc2c1C=CC(C)(C)O2` (stereo not shown) [MUNDULONE], in data set [1] (human, 41 h, 10 μM), the “Hs18S ΔCT” value amounted to 0.22. Besides, the cytotoxicity at 41 h, 10 µM in data set [2] is 14.4%. The inhibition at 10 µM in data set [3] came to 61.8%. For the same compound, in data set [3] (secondary screening at 3.3 uM, read-out: % Inhibition (3.3 uM)), the inhibition at 3.3 µM is -43%.
Consider `C/C(=C\C(=O)OCCCCCCCCC(=O)O)C[C@@H]1OC[C@H](C[C@@H]2O[C@H]2[C@@H](C)[C@H](C)O)[C@@H](O)[C@H]1O` [MUPIROCIN], for which the “Hs18S ΔCT” value in data set [1] (human, 41 h, 10 μM) was found to be 0.09. For the same compound, the cytotoxicity at 41 h, 10 µM in data set [2] was 5.8%. Moreover, in data set [3], the inhibition at 10 µM amounted to 45.6%.
Taken in the same sequence, the figures for `CC1=CC2C(CC1=O)C(C)=CCC2C(C)C` (stereo not shown) [MUUROLLADIE-3-ONE] were -0.02, -1.7% and -7.55%.
As to `COc1c(C)c2c(c(O)c1C/C=C(\C)CCC(=O)O)C(=O)OC2` [MYCOPHENOLIC ACID], the “Hs18S ΔCT” value in data set [1] (human, 41 h, 10 μM) stood at 1.03. Moreover, in data set [2], the cytotoxicity at 41 h, 10 µM is 51.1%. In addition, the inhibition at 10 µM in data set [3] worked out at 44.4%.
On to `c1cncc(C2=NCCC2)c1` [MYOSMINE], for which the “Hs18S ΔCT” value in data set [1] (setting [4]) is recorded as 0.07. Also, the cytotoxicity at 10 µM in data set [2] amounted to 4.5%. Also, the inhibition at 10 µM in data set [3] is -17.6%.
Regarding `C=CCN1CC[C@]23c4c5ccc(O)c4O[C@H]2C(=O)CC[C@@]3(O)[C@H]1C5` [NALOXONE HYDROCHLORIDE], the “Hs18S ΔCT” value in data set [1] (setting [4]) is on record as 0.20. For the same compound, the cytotoxicity at 10 µM in data set [2] worked out at 12.7%. Further, the inhibition at 10 µM in data set [3] amounted to 21.9%.
In the case of `O=C1C[C@@H](c2ccc(O)cc2)Oc2cc(O)cc(O)c21` [NARINGENIN], the “Hs18S ΔCT” value in data set [1] (setting [4]) is listed as -0.23. Also, in data set [2], the cytotoxicity at 41 h, 10 µM is -17.3%. Besides, the inhibition at 10 µM in data set [3] was found to be 47.6%.
For the compound `C[C@@H]1O[C@@H](O[C@H]2[C@H](Oc3cc(O)c4c(c3)O[C@H](c3ccc(O)cc3)CC4=O)O[C@H](CO)[C@@H](O)[C@@H]2O)[C@H](O)[C@H](O)[C@H]1O` [NARINGIN], the “Hs18S ΔCT” value in data set [1] (human, 41 h, 10 μM) worked out at 0.16. In data set [2], the cytotoxicity at 41 h, 10 µM was 10.4%. Besides, the inhibition at 10 µM in data set [3] is 2.06%.
